Laboratory results taken from article PMC5011342, “A high throughput drug screening assay to identify compounds that promote oligodendrocyte differentiation using acutely dissociated and purified oligodendrocyte precursor cells” (BMC Research Notes, 2016).
Read-outs that look alike come from different tables or passages of the source.

Assays:
[1] = tested on: acutely dissociated and purified rat OPCs; experiment: Acute OL differentiation assay (MBP expression/cell, immunofluorescent image quantification); assay type: cell-based
How it was run: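 This acute differentiation assay used purified rat OPCs from postnatal day 6–7 pups, seeded into PDL/laminin-coated 96-well plates in differentiation medium lacking PDGF and FGF. Compounds were applied in quadruplicate after a 1–2 h preincubation at 37 °C, 10 % CO2, with 0.1 % DMSO negative and 40 ng/ml T3 positive controls in eight wells. After fixation on DIV4, anti-MBP immunofluorescence images yielded MBP expression/cell.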

[2] = tested on: expanded OPCs; experiment: cells; conditions: for viability at 0.1 µM / viability at 1 µM / viability at 10 µM: Rattus norvegicus, 72 h
How it was run: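 Toxicity screen: compounds added at 0.1, 1 and 10 µM to PDGF-AA-expanded OPCs in 96-well plates, 3-day incubation at 37 °C, 10% CO2, then alamarBlue 1:10 for 4 h with fluorescence readout. Results set screening doses of 10/2, 2/0.4 or 0.4/0.08 µM.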

[3] = Rattus norvegicus, 2 uM test compound, relative to quetiapine, sheet "All OLga data", read-out: OL differentiation, 2 uM (% Quet)
[4] = Rattus norvegicus, 10 uM test compound, relative to quetiapine, sheet "All OLga data", read-out: OL differentiation, 10 uM (% Quet)
[5] = read-out: 0.1 µM (% DMSO), alamarBlue viability of expanded OPCs, compound at 0.1 µM, sheet All Tox data
[6] = read-out: 1 µM (% DMSO), alamarBlue viability of expanded OPCs, compound at 1 µM, sheet All Tox data
[7] = read-out: 10 µM (% DMSO), alamarBlue viability of expanded OPCs, compound at 10 µM, sheet All Tox data
[8] = Rattus norvegicus, test compound at 2 uM, NCC library screen, sheet "All OLga data", relative to quetiapine, read-out: 2 uM (% Quet)
[9] = Rattus norvegicus, test compound at 10 uM, NCC library screen, sheet "All OLga data", relative to quetiapine, read-out: 10 uM (% Quet)
[10] = read-out: 0.1 µM (% DMSO), alamarBlue viability, NCC library compound at 0.1 µM, sheet "All Tox data"
[11] = read-out: 1 µM (% DMSO), alamarBlue viability, NCC library compound at 1 µM, sheet "All Tox data"
[12] = read-out: 10 µM (% DMSO), alamarBlue viability, NCC library compound at 10 µM, sheet "All Tox data"
[13] = Rattus norvegicus, 0.08 uM test compound, relative to quetiapine, sheet "All OLga data", read-out: OL differentiation, 0.08 uM (% Quet)
[14] = Rattus norvegicus, 0.4 uM test compound, relative to quetiapine, sheet "All OLga data", read-out: OL differentiation, 0.4 uM (% Quet)
[15] = Rattus norvegicus, test compound at 0.08 uM, NCC library screen, sheet "All OLga data", relative to quetiapine, read-out: 0.08 uM (% Quet)
[16] = Rattus norvegicus, test compound at 0.4 uM, NCC library screen, sheet "All OLga data", relative to quetiapine, read-out: 0.4 uM (% Quet)
[17] = alamarBlue viability of expanded OPCs, compound at 0.1 µM, relative to DMSO control
[18] = alamarBlue viability of expanded OPCs, compound at 1 µM, relative to DMSO control
[19] = alamarBlue viability of expanded OPCs, compound at 10 µM, relative to DMSO control
[20] = test compound at 2 uM, NCC library screen, sheet "All OLga data", relative to quetiapine
[21] = alamarBlue viability, NCC library compound at 0.1 µM, sheet "All Tox data"
[22] = alamarBlue viability, NCC library compound at 1 µM, sheet "All Tox data"
[23] = alamarBlue viability, NCC library compound at 10 µM, sheet "All Tox data"

Compound	activation at 2 µM [1, 3] [%]	activation at 10 µM [1, 4] [%]	viability at 0.1 µM [2, 5] [%]	viability at 1 µM [2, 6] [%]	viability at 10 µM [2, 7] [%]	viability at 0.1 µM [2, 10] [%]	viability at 1 µM [2, 11] [%]	viability at 10 µM [2, 12] [%]	other results
CC(C(O)c1ccc(O)cc1)N1CCC(Cc2ccccc2)CC1 (stereo not shown) [Ifenprodil, reference compound]	162	154	93	135	103	–	–	–	EC50 ([1]; Rattus norvegicus, average EC50 for induction of OL differentiation from independent biological replicates, eight concentrations): 400 nM; hit in OL differentiation assay, MRF-TMC ([1]; ● = confirmed hit in this paper's assay): ●
CC1Cc2ccccc2N1NC(=O)c1ccc(Cl)c(S(N)(=O)=O)c1 (stereo not shown) [Indapamide]	–	–	–	–	–	95.2	92.1	101	activation at 2 µM [1, 8]: -10%; activation at 10 µM [1, 9]: -12.4%
CNC1CC(c2ccc(Cl)c(Cl)c2)c2ccccc21 (stereo not shown) [Indatraline]	–	–	75.5	41.1	11.7	–	–	–	activation at 0.08 µM [1, 13]: 15.3%; activation at 0.4 µM [1, 14]: 24.5%
CC(C)(C)NC(=O)[C@@H]1CN(Cc2cccnc2)CCN1C[C@@H](O)C[C@@H](Cc1ccccc1)C(=O)N[C@H]1c2ccccc2C[C@H]1O [Indinavir]	13.4	-44.2	105	91.7	92.2	–	–	–	–
O=C1Nc2ccccc2/C1=C1/Nc2ccccc2C1=O [Indirubin]	108	–	–	–	–	97.6	78.2	46.3	activation at 0.4 µM [1, 14]: 26%
COc1ccc2c(c1)c(CC(=O)O)c(C)n2C(=O)c1ccc(Cl)cc1 [Indomethacin]	-10.2	2.6	81.3	85.4	87.1	–	–	–	–
CC(C)Oc1ccc2c(=O)c(-c3ccccc3)coc2c1 [Ipriflavone]	22.5	32	87.3	92.1	117	–	–	–	–
CCCCC1=NC2(CCCC2)C(=O)N1Cc1ccc(-c2ccccc2-c2nnn[nH]2)cc1 [Irbesartan]	0.6	-16.7	–	–	–	88.9	92.8	89.7	–
CCc1c2c(nc3ccc(OC(=O)N4CCC(N5CCCCC5)CC4)cc13)-c1cc3c(c(=O)n1C2)COC(=O)[C@]3(O)CC [Irinotecan]	–	–	–	–	–	82.8	49.7	27.9	activation at 0.08 µM [1, 15]: -38.4%; activation at 0.4 µM [1, 16]: -140%
Nc1nc(N)nc(-c2cc(Cl)ccc2Cl)n1 [Irsogladine]	20.6	6.1	92.2	92.7	94.8	–	–	–	–
NNC(=O)c1ccncc1 [Isoniazid]	–	–	–	–	–	–	–	–	activation at 2 µM [1, 8]: -8.7%; activation at 10 µM [1, 9]: 3.1%; 0.1 µM (% DMSO) [2, 17]: 98.2 % DMSO; 1 µM (% DMSO) [2, 18]: 98.4 % DMSO; 10 µM (% DMSO) [2, 19]: 66.3 % DMSO
CC(C)NCC(O)c1ccc(O)c(O)c1 (stereo not shown) [Isoproterenol]	–	–	–	–	–	–	–	–	activation at 2 µM [1, 8]: -19.5%; activation at 10 µM [1, 9]: -148%; 0.1 µM (% DMSO) [2, 17]: 95.1 % DMSO; 1 µM (% DMSO) [2, 18]: 94.6 % DMSO; 10 µM (% DMSO) [2, 19]: 67.7 % DMSO
O=c1c(O[C@@H]2O[C@H](CO)[C@@H](O)[C@H](O)[C@H]2O)c(-c2ccc(O)c(O)c2)oc2cc(O)cc(O)c12 [Isoquercitrin]	12.9	8.7	85.5	92.9	101	–	–	–	–
CC1=C(/C=C/C(C)=C/C=C/C(C)=C\C(=O)O)C(C)(C)CCC1 [Isotretinoin]	–	–	–	–	–	–	–	–	activation at 2 µM ([1]; Rattus norvegicus, test compound at 2 uM, MBP expression relative to quetiapine, NCC library screen, sheet "All OLga data", read-out: 2 uM (% Quet)): -19.2%; activation at 10 µM ([1]; Rattus norvegicus, test compound at 10 uM, MBP expression relative to quetiapine, NCC library screen, sheet "All OLga data", read-out: 10 uM (% Quet)): -6.2%; 0.1 µM (% DMSO) [2, 17]: 104.5 % DMSO; 1 µM (% DMSO) [2, 18]: 112.6 % DMSO; 10 µM (% DMSO) [2, 19]: 136.3 % DMSO
CC(COc1ccccc1)NC(C)C(O)c1ccc(O)cc1 (stereo not shown) [Isoxsuprine]	–	–	–	–	–	–	–	–	activation at 2 µM [1, 8]: 13.2%; activation at 10 µM [1, 9]: 2.2%; 0.1 µM (% DMSO) [2, 17]: 97.2 % DMSO; 1 µM (% DMSO) [2, 18]: 91.9 % DMSO; 10 µM (% DMSO) [2, 19]: 60.9 % DMSO
COC(=O)C1=C(C)NC(C)=C(C(=O)OC(C)C)C1c1cccc2nonc12 (stereo not shown) [Isradipine]	-6.1	–	–	–	–	89.4	80.5	45.6	activation at 0.4 µM [1, 14]: -7.2%
O=C(O)C[C@H](O)C[C@H](O)/C=C/c1c(C2CC2)nc2ccccc2c1-c1ccc(F)cc1 [Itavastain]	–	–	–	–	–	–	–	–	0.4 uM (% Quet) ([1]; test compound at 0.4 uM, NCC library screen, sheet "All OLga data", relative to quetiapine): -60.9 % Quet; 2 uM (% Quet) [1, 20]: -74.4 % Quet; 0.1 µM (% DMSO) [2, 21]: 114.3 % DMSO; 1 µM (% DMSO) [2, 22]: 70.7 % DMSO; 10 µM (% DMSO) [2, 23]: 19.8 % DMSO
COc1ccc(C(=O)NCc2ccc(OCCN(C)C)cc2)cc1OC [Itopride]	-2.3	2	–	–	–	112	97.5	87.1	–
CCC(C)n1ncn(-c2ccc(N3CCN(c4ccc(OCC5COC(Cn6cncn6)(c6ccc(Cl)cc6Cl)O5)cc4)CC3)cc2)c1=O (stereo not shown) [Itraconazole]	–	–	86.1	29.2	26.2	–	–	–	activation at 0.08 µM [1, 13]: 2.8%; activation at 0.4 µM [1, 14]: -174%
CN(CCO)CC(O)Cn1cnc2c1c(=O)n(C)c(=O)n2C (stereo not shown) [Jupal]	–	–	–	–	–	–	–	–	2 uM (% Quet) [1, 20]: 0.8 % Quet; 10 uM (% Quet) ([1]; test compound at 10 uM, NCC library screen, sheet "All OLga data", relative to quetiapine): 6.5 % Quet; 0.1 µM (% DMSO) [2, 21]: 92.2 % DMSO; 1 µM (% DMSO) [2, 22]: 91.0 % DMSO; 10 µM (% DMSO) [2, 23]: 92.4 % DMSO
CC(=O)N1CCN(c2ccc(OCC3COC(Cn4ccnc4)(c4ccc(Cl)cc4Cl)O3)cc2)CC1 (stereo not shown) [Ketoconazole]	16.5	-67.7	98.1	126	109	–	–	–	–
CC(C(=O)O)c1cccc(C(=O)c2ccccc2)c1 (stereo not shown) [Ketoprofen]	–	–	–	–	–	–	–	–	activation at 2 µM [1, 8]: 0.75%; activation at 10 µM [1, 9]: -29.2%; 0.1 µM (% DMSO) [2, 17]: 90.4 % DMSO; 1 µM (% DMSO) [2, 18]: 89.7 % DMSO; 10 µM (% DMSO) [2, 19]: 95.0 % DMSO
O=C(c1ccccc1)c1ccc2n1CCC2C(=O)O (stereo not shown) [Ketorolac]	–	–	–	–	–	97.7	102	103	activation at 2 µM [1, 8]: 16.3%; activation at 10 µM [1, 9]: -1.3%
CN1CCC(=C2c3ccccc3CC(=O)c3sccc32)CC1 [Ketotifen]	–	–	–	–	–	85.1	72.7	36.9	activation at 0.4 µM [1, 16]: -11.2%; activation at 2 µM [1, 8]: 0.04%
[H]/N=C(/NC)NCCC[C@H](N)C(=O)O [L-NMMA]	3	7.7	84.1	92.4	93	–	–	–	–
CCCc1c(OCCCCc2nnn[nH]2)ccc(C(C)=O)c1O [LY 171883]	-33.3	-5.4	79.7	81.3	86.1	–	–	–	–
CC(CCc1ccccc1)NCC(O)c1ccc(O)c(C(N)=O)c1 (stereo not shown) [Labetalol]	–	–	–	–	–	92.7	79.2	47.3	activation at 0.4 µM [1, 16]: -5.2%; activation at 2 µM [1, 8]: -15.3%
CCOC(=O)C1=C(C)NC(C)=C(C(=O)OCC)C1c1ccccc1/C=C/C(=O)OC(C)(C)C [Lacidipine]	–	–	–	–	–	64.4	55.3	8.7	activation at 0.08 µM [1, 15]: -1.1%; activation at 0.4 µM [1, 16]: -11.2%
